Read-outs that look alike come from different tables or passages of the source.
Key:
[1] = system: Nicotiana benthamiana leaf discs; assay: PSII yield inhibition (chlorophyll fluorescence, imaging PAM) in transiently transformed tobacco leaf discs; format: cell-based; details: read-out: IC50 of PSII yield inhibition
Description: Transient expression of PPO sequences (e.g. SEQ ID NO: 184) as wildtype or with respective mutations were done as described previously (Voinnet O., et al., 2003, The Plant Journal 33, 949-956). In brief, cloning of GOI and Agrobacterium transformation (strain: GV2260) were done as described in EXAMPLE 5. Young leaves of
Nicotiana benthamiana were infiltrated with transgenic Agrobacterium suspension (OD^600 of 1.0) harboring binary vector constructs containing a GO/gene controlled by a promoter and terminator sequence. 48 h to 72 h after infiltration punches of leave discs (0.75 cm in diameter) were transferred to 6-well plates with medium (half strength Linsmaier-Skoog (Linsmaier and Skoog (1965) Physiol. Plant. 18: 100-127) nutrient solution or water) containing herbicide of interest in different concentrations. […]
Leaf discs, generated as described in EXAMPLE 14, expressing a protein encoded by GOI, were subjected to analysis on improved tolerance to herbicide treatment. For analysis of herbicide damage, chlorophyll fluorescence were identified as indicative marker (Dayan and Zaccaro (2012) Pest. Biochem. Physiol. 102: 189-197). […] PSII yield were measured as per manufacturer instructions. Tolerance factors were calculated based on IC50 values of PSII yield inhibition of transformed versus empty vector-transformed leaf discs. […]

[2] = system: Transgenic Arabidopsis thaliana plants with wildtype or mutated PPO sequences; assay: Tolerance of transgenic Arabidopsis thaliana plants to PPO-inhibiting herbicides in 48-well plates (growth inhibition); format: in vivo; details: seven to ten days after seeding
Procedure: Transformed cells are selected in selection media supplemented with 0.5-1.5 μM imazethapyr for 3-4 weeks. Transgenic plantlets are regenerated on plant regeneration media and rooted afterwards. Transgenic plantlets are subjected to TaqMan analysis for the presence of the transgene before being transplanted to potting mixture and grown to maturity in greenhouse. Arabidopsis thaliana are transformed with wildtype or mutated PPO sequences by floral dip method as described by McElver and Singh (WO 2008/124495). Transgenic Arabidopsis plants are subjected to TaqMan analysis for analysis of the number of integration loci. Transformation of Otyza sativa (rice) are done by protoplast transformation as described by Peng et al. (U.S. Pat. No. 6,653,529) TO or T1 transgenic plant of soybean, corn, and rice containing mutated PPO sequences are tested for improved tolerance to PPO-derived herbicides in greenhouse studies and mini-plot studies with the following PPO-inhibiting herbicides: saflufenacil, 1,5-dimethyl-6-thioxo-3-(2,2,7-trifluoro-3-oxo-4-(prop-2-ynyl)-3,4-dihydro-2H-benzo[b][1,4]oxazin-6-yl)-1,3,5-triazinane-2,4-dione (CAS 1258836-72-4), flumioxazin, butafenacil, acifluorfen, lactofen, bifenox, sulfentrazone, and photosynthesis inhibitor diuron as negative control.
Transgenic Arabidopsis thaliana plants are assayed for improved tolerance to saflufenacil, 1,5-dimethyl-6-thioxo-3-(2,2,7-trifluoro-3-oxo-4-(prop-2-ynyl)-3,4-dihydro-2H-benzo[b][1,4]oxazin-6-yl)-1,3,5-triazinane-2,4-dione (CAS 1258836-72-4), flumioxazin, butafenacil, acifluorfen, lactofen, bifenox, sulfentrazone, and photosynthesis inhibitor diuron as negative control in 48-well plates. Therefore, T2 seeds are surface sterilized by stirring for 5 min in ethanol+water (70+30 by volume), rinsing one time with ethanol+water (70+30 by volume) and two times with sterile, deionized water. The seeds are resuspended in 0.1% agar dissolved in water (w/v) Four to five seeds per well are plated on solid nutrient medium consisting of half-strength murashige skoog nutrient solution, pH 5.8 (Murashige and Skoog (1962) Physiologia Plantarum 15: 473-497). Compounds are dissolved in dimethylsulfoxid (DMSO) and added to the medium prior solidification (final DMSO concentration 0.1%). Multi well plates are incubated in a growth chamber at 22° C., 75% relative humidity and 110 μmol Phot*m^−2*s^−1 with 14:10 h light: dark photoperiod. Growth inhibition is evaluated seven to ten days after seeding in comparison to wild type plants.

[3] = gene CHLSP_PPO_wt_tpFNR, Chloroflexus sp. (SEQ ID NO: 21)
[4] = gene OPITE_PPO_wt_tpFNR, Opitutus marinus (SEQ ID NO: 9)
[5] = gene RHOMA_PPO_F353V_tpFNR, Rhodotermus marinus (SEQ ID NO: 3 oder 5)
[6] = gene RHOMA_PPO_wt_tpFNR, Rhodotermus marinus (SEQ ID NO: 3 oder 5)
[7] = gene hemG_tpFNR, Escherichia coli (SEQ ID NO: 184)

SMILES: CC(C)N(C)S(=O)(=O)NC(=O)c1cc(-n2c(=O)cc(C(F)(F)F)n(C)c2=O)c(F)cc1Cl [Saflufenacil, saflufenacil]
- IC50 ([1]; 48 h): 110 nM
- improved tolerance (growth inhibition in comparison to wild type plants) ([2]; gene AC IB A_hemJ_wt_tpFNR, Acinetobacter baylyi (SEQ ID NO: 312)): 1
- improved tolerance (growth inhibition in comparison to wild type plants) ([2]; gene CALNI_PPO_wt_tpFNR, Calditerrivibrio nitroreducens (SEQ ID NO: 48)): 1
- improved tolerance (growth inhibition in comparison to wild type plants) ([2]; gene CANME_PPO_wt_tpFNR, Candidatus methylomirabilis (SEQ ID NO: 54 or 57)): 1
- improved tolerance (growth inhibition in comparison to wild type plants) [2, 3]: 640
- improved tolerance (growth inhibition in comparison to wild type plants) ([2]; gene HYDTH_PPO_wt_tpFNR, Hydrogenobacter thermophilus (SEQ ID NO: 27)): 10
- improved tolerance (growth inhibition in comparison to wild type plants) ([2]; gene LARHO_PPO_wt_tpFNR, Laribacter hongkongensis (SEQ ID NO: 34)): 1
- improved tolerance (growth inhibition in comparison to wild type plants) [2, 4]: 14
- improved tolerance (growth inhibition in comparison to wild type plants) [2, 5]: 1
- improved tolerance (growth inhibition in comparison to wild type plants) [2, 6]: 1
- improved tolerance (growth inhibition in comparison to wild type plants) [2, 7]: 332

SMILES: C#CCN1C(=O)C(F)(F)Oc2cc(F)c(-n3c(=O)n(C)c(=S)n(C)c3=O)cc21 [BAS 850H, 1,5-dimethyl-6-thioxo-3-(2,2,7-trifluoro-3-oxo-4-(prop-2-ynyl)-3,4-dihydro-2H-benzo[b][1,4]oxazin-6-yl)-1,3,5-triazinane-2,4-dione]
- IC50 ([1]; empty vector-transformed leaf discs, treated for 48 h): 11 nM
- improved tolerance (growth inhibition in comparison to wild type plants) [2, 3]: 1500
- improved tolerance (growth inhibition in comparison to wild type plants) [2, 4]: 9
- improved tolerance (growth inhibition in comparison to wild type plants) [2, 5]: 1
- improved tolerance (growth inhibition in comparison to wild type plants) [2, 6]: 1
- improved tolerance (growth inhibition in comparison to wild type plants) [2, 7]: 4433

Source: patent US12338446B2, “Plants having increased tolerance to herbicides” (priority 2015, dated 2025)
